The target in this assay is Yck2-HA (HA-tagged Yck2) (Candida albicans, UniProt A0A1D8PKB4). The experiment in a line: ADP-Glo kinase assay on immunoprecipitated Yck2-HA beads. The class given is biochemical. The note with it: 25 μM ATP, 0.2 mg/mL casein kinase I peptide substrate, pH 7.5, 30°C; little effect.

In the case of `CN[C@@H]1C[C@H]2O[C@@](C)([C@@H]1OC)n1c3ccccc3c3c4c(c5c6ccccc6n2c5c31)C(=O)NC4` [STS, staurosporine], the concentration-dependent inhibition entry is “the promiscuous PKI, staurosporine had little effect on Yck2 activity”.
